Results as given in patent publication US20190337927A1, “PHOTOPROTECTIVE COMPOSITIONS CONTAINING MALASSEZIA-DERIVED COMPOUNDS AND/OR CHEMICAL ANALOGS THEREOF” (priority 2018, published 2019).
Where two headings read alike, the source gives them in different places.

How the values were obtained:
[1] = cited from earlier work
staphylococci = details: cited from earlier work
Candida albicans = details: cited from earlier work
[2] = biological target: T1, arylhydrocarbon receptor (AhR) (Homo sapiens, UniProt P35869); details: cited from earlier work
T1 sequence (P35869 11-848): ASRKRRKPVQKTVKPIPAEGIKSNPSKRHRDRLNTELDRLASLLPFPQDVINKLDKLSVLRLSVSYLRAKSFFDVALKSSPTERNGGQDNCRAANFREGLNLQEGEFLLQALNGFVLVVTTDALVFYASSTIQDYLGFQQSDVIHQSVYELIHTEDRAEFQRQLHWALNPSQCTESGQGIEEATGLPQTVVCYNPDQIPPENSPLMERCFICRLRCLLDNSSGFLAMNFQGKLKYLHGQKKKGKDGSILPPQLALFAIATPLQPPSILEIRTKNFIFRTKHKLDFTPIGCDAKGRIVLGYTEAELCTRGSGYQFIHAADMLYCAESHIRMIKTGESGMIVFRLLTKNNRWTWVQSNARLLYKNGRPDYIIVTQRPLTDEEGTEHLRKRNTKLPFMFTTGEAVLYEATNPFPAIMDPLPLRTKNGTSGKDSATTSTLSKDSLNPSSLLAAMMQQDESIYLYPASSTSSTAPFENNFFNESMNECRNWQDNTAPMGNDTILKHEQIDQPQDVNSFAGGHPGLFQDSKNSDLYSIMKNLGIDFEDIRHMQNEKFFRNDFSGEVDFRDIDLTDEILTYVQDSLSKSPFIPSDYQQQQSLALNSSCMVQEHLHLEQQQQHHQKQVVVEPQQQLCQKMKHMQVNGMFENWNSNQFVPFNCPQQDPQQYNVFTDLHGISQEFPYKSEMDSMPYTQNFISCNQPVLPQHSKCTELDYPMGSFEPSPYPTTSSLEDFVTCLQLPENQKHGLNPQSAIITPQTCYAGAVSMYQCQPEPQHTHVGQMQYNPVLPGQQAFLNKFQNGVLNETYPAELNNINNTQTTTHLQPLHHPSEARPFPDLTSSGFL

yeast model = details: cited from earlier work
[3] = system: primary human melanocytes; details: cited from earlier work
Skin Type IV female = assay: In vivo photoprotection proof of concept study: UVB-induced erythema after topical treatment; parameters: species or system human; details: one subject
Source text: The Malassezin 1% formulation used in this study contained the following ingredients: Water (aqua)—65.939%; Dimethyl isosorbide—20.000%; Olive Oil Glycereth-8 Esters—3.000%; Glycerin—2.991%; Coconut Alkanes—2.700%; Hydroxyethyl Acrylate/Sodium Acryloyldimethyl Taurate Copolymer—1.700%; Malassezin—1.000%; Pentylene Glycol—1.000%; Phenoxyethanol—0.640%; Coco-Caprylate/Caprate—0.300%; Caprylyl Glycol—0.200%; Chlorphenesin—0.160%; Sorbitan Isostearate—0.140%; Tocopherl—0.100%; Polysorbate 60—0.080%; and Disodium EDTA—0.050%.
A Skin Type IV […] was included in this Proof of Concept study.
A template of 6 squares was placed on the lower left back (1.5 cm×1.5 cm) of the test subject See FIG. 7.
Twenty-four hours after irradiation, the subject returned for MED assessment.
A second right lower square was treated twice daily from day 4 to day 7, and a third medial square for one application on day 7. The product vehicle was applied for 7 days twice daily on the left back. The subject returned to the research center for irradiation on day 7. Each test site was irradiated with 120 mJ of UVB exposure. The subject returned in 24 hours for assessment of phototoxicity/photoprotection.
The subject continued the experiment, receiving Malassezin 1% for a total of 14 days. […]

## O=C(c1c[nH]c2ccccc12)c1nccc2c1[nH]c1ccccc12 [Pityriacitrin]
[1]; in vitro and in vivo tests in humans
  UV protective effect overall: very weak
[1]; pityriacitrin concentration 1.25% in cream
  sun protection factor (SPF): 1.4
[1]; pityriacitrin concentration 2.5% in cream
  sun protection factor (SPF): 1.5
[1]; pityriacitrin concentration 5% in cream
  sun protection factor (SPF): 1.7
staphylococci
  UV-protective effect: UV-protective effect
staphylococci; ranges tested
  toxicity: no toxicity
Candida albicans
  UV-protective effect: UV-protective effect
Candida albicans; ranges tested
  toxicity: no toxicity

## O=C1Nc2ccccc2/C1=C1/Nc2ccccc2C1=O [Indirubin]
[2]
  AhR activity: agonist

## O=C1OC(c2c[nH]c3ccccc23)=C(c2c[nH]c3ccccc23)C1=O [Pityrialactone]
Yeast model
  UV protective properties: confirmed

## O=Cc1c(Cc2c[nH]c3ccccc23)[nH]c2ccccc12 [Malassezin, 2-(1H-indol-3-ylmethyl)-1H-indole-3-carbaldehyde]
[2]
  AhR activity: agonist
[3]
  apoptosis induction: induces apoptosis
Skin Type IV female
  UV-protective properties, study conclusion: UV-protective properties
